Our source for the TGI and GI50 values is PubChem BioAssay (NCI).

Several values for one entry are separate records, joined by “and”; a condition that tells them apart may be missing. Equal entries are not always repeated.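 Briefly, cells in 96-well plates were exposed to five compound concentrations for 48 h, and endpoints were estimated by linear interpolation. Abbreviation: GI50, concentration required for 50% inhibition of growth. TGI: total growth inhibition.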 A value given as a limit tells only on which side of the number the result lay.

Test systems include KM20L2 colon; LXFL 529 NSCLC; HS 578T breast; DLD-1 colon; HOP-18 NSCLC; XF 498 CNS; SNB-78 CNS; RXF-631 renal; SN12K1 renal; P388 leukemia; MDA-N.
Common to all, as to assay: NCI tumour cell line growth inhibition, 48 h

For the compound `c1ccc([P+](CCC[P+](c2ccccc2)(c2ccccc2)c2ccccc2)(c2ccccc2)c2ccccc2)cc1`, the TGI was over 100 µM with KM20L2 colon; over 100 µM in the test with LXFL 529 NSCLC; 85.4 µM in the test on HS 578T breast; over 100 µM with DLD-1 colon; over 100 µM in the test on HOP-18 NSCLC; 77.9 µM in the test with XF 498 CNS. The TGI in the test with SNB-78 CNS and with RXF-631 renal was over 100 µM each time. Further, the GI50 in the test on HS 578T breast was 11.8 µM.

For the compound `CCCCCC/C=C/CCCCCCCc1cccc(O)c1C(=O)O`, the TGI in the test with KM20L2 colon, with LXFL 529 NSCLC, with DLD-1 colon, in the test with HOP-18 NSCLC, in the test on XF 498 CNS and in the test on SNB-78 CNS was over 100 µM each time. Moreover, the TGI in the test on RXF-631 renal is over 100 µM.

Take `CO[C@@]12[C@H](COC(N)=O)C3=C(C(=O)C(C)=C(N)C3=O)N1C[C@@H]1N[C@@H]12`: the TGI in the test with KM20L2 colon was 10.2 µM; with SN12K1 renal, 7.65 µM; in the test on P388 leukemia, 9.62 µM; in the test with LXFL 529 NSCLC, 7.53 µM; with MDA-N, 7.44 µM and 19.1 µM; in the test with HS 578T breast, 15.3 µM and 14 µM and 52.1 µM. In addition, the TGI amounted to 17.2 µM in the test on DLD-1 colon and 7.59 µM in the test with HOP-18 NSCLC. In addition, the GI50 in the test on MDA-N is 2.11 µM and 2.67 µM; in the test on HS 578T breast, 4.21 µM and 5.26 µM.

With `O/N=C1/C(=C/c2ccc(Cl)cc2)CCCC1C(NO)c1ccc(Cl)cc1` (stereo not drawn), the TGI is 36.6 µM in the test on KM20L2 colon; over 100 µM in the test on LXFL 529 NSCLC; over 100 µM with DLD-1 colon; 55.1 µM with HOP-18 NSCLC; 60.1 µM with XF 498 CNS; 48.5 µM with SNB-78 CNS. In the test with RXF-631 renal, this compound returned a TGI of 41 µM.

As to `C[C@@]1(CBr)C[C@@](C)(/C=C/Cl)[C@@H](Cl)C[C@H]1Cl`, the TGI worked out at 24.6 µM in the test on KM20L2 colon; 21.7 µM with LXFL 529 NSCLC; 27.3 µM in the test on DLD-1 colon; 26.4 µM with HOP-18 NSCLC; 24.5 µM with XF 498 CNS; 14 µM with SNB-78 CNS. The compound further registered a TGI with RXF-631 renal of 24.2 µM.

Consider `CC(=O)OC1C/C(C)=C/[C@H](O)CC(C)/C=C/[C@@]2(C)CCC(C(C)(C)O)C12` (stereo partly drawn), for which the TGI with KM20L2 colon, with LXFL 529 NSCLC, in the test on DLD-1 colon, in the test with HOP-18 NSCLC, with XF 498 CNS and with SNB-78 CNS was over 100 µM each time. In the test on RXF-631 renal, the TGI was over 100 µM.

On to `COC(=O)NN=C1C(C)(C)C(=NNC(=O)OC)C1(C)C`, for which the TGI in the test on KM20L2 colon, in the test with LXFL 529 NSCLC, in the test on DLD-1 colon, with HOP-18 NSCLC, in the test on XF 498 CNS and in the test with SNB-78 CNS was over 100 µM throughout. In the test with RXF-631 renal, this compound had a TGI of over 100 µM.

In the case of `O/N=C1/C(=C/c2ccccc2)CCCC1C(NO)c1ccccc1` (stereo not drawn), the TGI with KM20L2 colon was over 100 µM; in the test on LXFL 529 NSCLC, over 100 µM; in the test on HOP-18 NSCLC, over 100 µM; in the test with XF 498 CNS, 99.2 µM; in the test on SNB-78 CNS, over 100 µM; in the test with RXF-631 renal, over 100 µM.

Take `CN(C)C(=S)/N=c1\ssc(=S)n1Cc1ccccn1`: the TGI is over 100 µM in the test with LXFL 529 NSCLC; over 100 µM in the test with DLD-1 colon; over 100 µM in the test on HOP-18 NSCLC; 34.3 µM with XF 498 CNS; over 100 µM in the test on SNB-78 CNS; over 100 µM with RXF-631 renal.

On to `Oc1cccc2nc3cc(CN4CCOCC4)c(CN4CCOCC4)cc3nc12`, for which the TGI with KM20L2 colon, with LXFL 529 NSCLC, in the test with DLD-1 colon, in the test on HOP-18 NSCLC, in the test on XF 498 CNS and in the test with SNB-78 CNS was over 100 µM in each case. Besides, the TGI in the test with RXF-631 renal was over 100 µM.

As to `CCCCc1oc2ccccc2c1C(=O)c1cc(I)c(OCCN(CC)CC)c(I)c1`, the TGI in the test with SN12K1 renal stood at 7.45 µM; in the test on P388 leukemia, 11.2 µM; with DLD-1 colon, 54.1 µM; in the test on HOP-18 NSCLC, 1.29 µM; in the test on XF 498 CNS, 8.25 µM; in the test with SNB-78 CNS it was 25 µM.

As to `CC(=O)NNc1nc(C)c(C(/C=C/c2ccc(Cl)cc2)=N/NC(=S)NN)s1`, the TGI in the test with KM20L2 colon, in the test on LXFL 529 NSCLC, with DLD-1 colon, in the test with HOP-18 NSCLC, with XF 498 CNS and in the test on SNB-78 CNS was over 100 µM throughout. In the test on RXF-631 renal, this compound had a TGI of over 100 µM.

For `CCC[CH2][Sn]1([CH2]CCC)[O]CC([CH2][Sn]([c]2ccccc2)([c]2ccccc2)[c]2ccccc2)[O]1` (stereo not drawn), the GI50 with DLD-1 colon was 5.92 µM; with HOP-18 NSCLC, 12.7 µM; in the test on XF 498 CNS it was 15.3 µM; in the test with SNB-78 CNS, 10.2 µM; in the test with RXF-631 renal it was 10.7 µM. Further, the TGI with DLD-1 colon turned out to be 18.4 µM; in the test on HOP-18 NSCLC it was 25.2 µM; in the test on XF 498 CNS it was 28.6 µM; with SNB-78 CNS it was 26.4 µM; in the test on RXF-631 renal, 30.5 µM.

For `COC(=O)C(C(=O)C(=O)Nc1ccc(C)cc1C)c1nc2ccc([N+](=O)[O-])cc2[nH]c1=O` (stereo not drawn), the TGI with KM20L2 colon, with LXFL 529 NSCLC, in the test with DLD-1 colon, in the test with HOP-18 NSCLC, in the test on XF 498 CNS and with SNB-78 CNS was over 100 µM throughout. In addition, the TGI in the test with RXF-631 renal was over 100 µM.
